Results: PubChem BioAssay AID489032 (Sanford-Burnham Center for Chemical Genomics, 2010)
Activity calls are given as the source filed them. How the calls were made is not given here.

Test system: UPR adaptive arm reporter cells, luciferase luminescence
Experiment: activators of adaptive UPR signalling, dose response, cell-based, luciferase luminescence (AID 489032)

EC50	SMILES
> 80 µM (inactive)	CCOC(=O)c1nnc(-c2ccccc2)nc1Sc1c(Cl)cccc1Cl
31.9 µM (inactive)	COc1cc(OC)cc(C(=O)Nc2ccc3nc4n(c(=O)c3c2)CCCCC4)c1
13.7 µM	O=c1[nH]c(-c2ccc(-c3cccc(Cl)c3)o2)nc2ccccc12
14.6 µM	CCc1ccccc1NC(=O)C(CC)Sc1nc2cc3c(cc2c(=O)n1Cc1ccco1)OCO3 (stereo not given)
> 80 µM (inactive)	CCCCCn1c(N)c(-c2nc3ccccc3o2)c2c([N+](=O)[O-])nn(CC)c(=O)c21
21.2 µM (inactive)	O=[N+]([O-])c1ccc(N/N=C/c2cccc(O)c2O)c(S(=O)(=O)N2CCOCC2)c1
40 µM (inactive)	NC(=S)N/N=C/c1ccc(C23CC4CC(CC(C4)C2)C3)cc1
> 80 µM (inactive)	COc1ccc(C(CCNC(C)c2ccccc2)c2ccc(F)cc2)cc1 (stereo not given)
> 80 µM (inactive)	O=C(COc1ccc(/C=N/NC(=O)c2cc3ccccc3o2)cc1Br)Nc1ccccc1
> 80 µM (inactive)	COc1ccc(C2NCCc3c2[nH]c2ccccc32)cc1COc1ccc(F)cc1 (stereo not given)
> 80 µM (inactive)	CN(C)CCCN(C(=O)c1ccc(S(=O)(=O)N2CCc3ccccc3C2)cc1)c1nc2ccc(F)cc2s1
> 80 µM (inactive)	N#C/C(=C/c1ccc(N2CCCC2)c([N+](=O)[O-])c1)c1nc2ccccc2[nH]1
11 µM	N#Cc1ccc(-c2ccc(Cl)cc2)nc1SCC(=O)c1cccc(Cl)c1
> 80 µM (inactive)	O=C(Cn1c2ccc(F)cc2c2nc3n(c(=O)c21)CCS3)Nc1ccc(Cl)cc1F
> 80 µM (inactive)	COc1ccc(-n2c(C)cc(C(=O)CCl)c2C)cc1
> 80 µM (inactive)	O=C(Cc1ccccc1)c1c[nH]c(C(=O)C(Cl)(Cl)Cl)c1
> 80 µM (inactive)	COc1ccc(NC(=O)c2sc3nc(N4CCOCC4)c4c(c3c2N)CC(C)(C)OC4)c(OC)c1
35.7 µM (inactive)	Cc1nn(-c2ccccc2)c(C)c1/C=N/NC(=O)CSc1nc2ccccc2c(=O)n1-c1ccc(Br)cc1

EC50	SMILES
> 80 µM (inactive)	Fc1ccc(Nc2nc(NCc3ccco3)c3ccccc3n2)cc1
> 80 µM (inactive)	CCOC(=O)c1sc(NC(=S)NC(=O)c2ccccc2)c(C(=O)OCC)c1C
> 80 µM (inactive)	CCCCN1C(=O)/C(=C2/Sc3ccc(OC)cc3N2CC)SC1=S
15.6 µM	CCOc1ccc2nc(NC3=NC(c4ccc(OC)cc4)CC(=O)N3)nc(C)c2c1 (stereo not given)
18.1 µM	O=c1cc(C(Cl)(Cl)Cl)oc2c1ccc1ccccc12
> 80 µM (inactive)	CCOC(=O)c1c(NC(=O)c2cc(-c3ccc(O)cc3)on2)sc(C(C)=O)c1C
9.17 µM	COc1ccc(C(CCNCc2ccc(F)cc2)c2ccc(F)cc2)cc1 (stereo not given)
> 80 µM (inactive)	COc1ccc(OC)c(-c2nnc3n2N=C(c2ccc(OC)c(OCC4CC4)c2)CS3)c1
> 80 µM (inactive)	C#CCOCCOCCOCCNc1nc(N2CCN(C(=O)CCCCCCCCCCNC(=O)[C@H](CCCCN)n3cc(C[C@@H](C)CC)nn3)CC2)nc(N2CCN(C(=O)CCCCCCCCCCNC(=O)[C@H](CCCN=C(N)N)n3cc(C[C@@H](C)CC)nn3)CC2)n1
> 80 µM (inactive)	Cc1ccc(Nc2nc(-c3c(C)nc4ccccn34)cs2)cc1
> 80 µM (inactive)	Cc1nc2ccccc2n1-c1nc(-c2ccco2)cc(C(F)(F)F)n1
10.1 µM	Cc1ccc(F)cc1N=Cc1c(O)c2ccccc2oc1=O
> 80 µM (inactive)	CCN=C1S/C(=C\c2cn(CC(=O)NCc3ccco3)c3ccccc23)C(=O)N1CC
> 80 µM (inactive)	CSC1=NC(C)(C)C=C(/C=C/c2ccc(Cl)cc2)N1
63.1 µM (inactive)	COc1ccc(Br)cc1-c1nc2c(c(=O)[nH]c(=O)n2Cc2ccccc2)n1C
> 80 µM (inactive)	COc1ccc2[nH]c3c(c2c1)CCN1C(=O)C(CC(=O)NC/C=C(\C)CCC=C(C)C)C[C@H](C(=O)N2CCOCC2)[C@@]31CCC1CCCC1 (stereo not given in full)
39.3 µM (inactive)	COc1cc(/C=C2\CC(C(C)(C)C)C/C(=C\c3cc(OC)c(OC)c(OC)c3)C2=O)cc(OC)c1OC (stereo not given)
